Results from patent publication US11124506B2, “Salts and crystal forms of diaza-benzofluoranthrene compounds” (HARBIN PHARMACEUTICAL GROUP CO., LTD. GENERAL …, priority 2016, dated 2021).

Molecular target: T1, PDE1A (Homo sapiens, UniProt P54750)
T1 construct: purchased SignalChem
Assay: In vitro detection of phosphodiesterase (PDE), fluorescence polarization detection of AMP/GMP production
Format: biochemical
Conditions: human enzyme (SignalChem), cAMP or cGMP substrate, Ca2+-calmodulin cofactor; read-out: IC50 values measured by PDE1 detection: PDE1
Experimental: Experimental Example 1: The In Vitro Detection of Phosphodiesterase (PDE)
Principle of the Experiment:
The assay measures PDE1A enzyme activity based on fluorescence polarization detection of AMP/GMP production. The principle of the reaction is to replace the binding of AMP/GMP to its antibody by AlexaFluor 633 labeled AMP/GMP.
Reaction buffer: 10 mM Tris-HCl, pH=7.5, 5 mM magnesium chloride, 0.01% Brij 35, 1 mM DTT, and 1% DMSO;
Enzyme substrate: […] cAMP or cGMP (Ca^2+-calmodulin as a cofactor of PDE1A);
Transcreener® AMP2/GMP2 antibody;
AMP2/GMP2 AlexaFluor 633 marker.
Experimental Procedures and Methods:
1. Human enzyme to be tested (purchased from SignalChem) and the substrate were diluted with a freshly prepared reaction buffer.
2. An enzyme solution (concentration: 3 pM) was added to the wells of a reaction plate.
3. […]
7. The following devices were used for detection: EnVision (PerkinElmer), Cy5FP Ex FP 620, Em S-pol 688/P-pol 688, FP mirror D658fp/D688; fluorescence polarization was detected using Ex/Em 620/688.
Enzymatic activity corresponding to the FP signal was retrieved in an AMP/GMP standard curve using DMSO as a control in an Excel table. […] An analysis was performed using GraphPad Prism and IC50 values were calculated.

- IC50: 1 to 20 µM
Compound: CC[C@@]12C=C(c3nc(C)no3)n3c4c(c5ccccc53)CCN(CCC1)[C@H]42 [Compound 1]
